Data taken from patent US20230382889A1 (Volastra Therapeutics, Inc., priority 2022, published 2023).

Target: hKIF18A (1-374) (Homo sapiens (Human), UniProt Q8NI77)
Experiment: Inhibition of KIF18A microtubule-dependent ATPase activity (ADP-Glo)
Assay type: biochemical
Conditions: 4 nM hKIF18A (1-374)
Description: Test compounds were plated in a 3× dilution scheme in a 384-well plate. Assay buffer: 80 mM PIPES (pH 6.9), 1 mM MgCl2, 75 mM KCl, 1 mM EGTA, 1 mM DTT, 0.01% BSA, 0.005% Tween-20, 1 μM Taxol in H2O. […] After incubation at room temperature for 30 min, 2.5 μL of microtubule mix was added [0.2 mg/mL pre-formed microtubules, 2.0 mM ATP in assay buffer], the plate was centrifuged for 30 s and then incubated at 28° C. for 60 min. 5 μL of Promega® ADP-Glo Max R1 was added, the plate was centrifuged for 30 s, and the mixture incubated for 4 h at room temperature. 10 μL of Promega® ADP-Glo Max R2 was added, the plate centrifuged for 30 s, and incubated for 60 min at room temperature. Luminescence was measured with an Envision plate reader, and % Inhibition was calculated for each well as: ([max−min]−[test−min])/[max−min]. IC50 values were calculated from concentration vs. % Inhibition data via a four-parameter variable slope model.

Chain of hKIF18A (1-374) (Q8NI77 1-374): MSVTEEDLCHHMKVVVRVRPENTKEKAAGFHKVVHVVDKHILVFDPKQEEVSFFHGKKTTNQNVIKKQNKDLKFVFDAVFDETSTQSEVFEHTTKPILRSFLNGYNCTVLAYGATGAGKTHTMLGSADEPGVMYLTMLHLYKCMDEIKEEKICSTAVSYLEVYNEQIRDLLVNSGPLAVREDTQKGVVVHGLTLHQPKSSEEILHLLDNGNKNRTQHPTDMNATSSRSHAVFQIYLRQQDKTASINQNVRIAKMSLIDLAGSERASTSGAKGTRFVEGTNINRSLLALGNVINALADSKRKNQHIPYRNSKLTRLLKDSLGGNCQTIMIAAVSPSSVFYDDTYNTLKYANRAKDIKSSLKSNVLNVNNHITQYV

Row | SMILES | IC50
1 | O=S(=O)(CCO)Nc1ccc(-n2cc(-c3csc(N4CCC(F)(F)CC4)n3)nn2)c(N2CCCCC2)c1 [Compound 86, N-(4-(4-(2-(4,4-difluoropiperidin-1-yl)thiazol-4-yl)-1H-1,2,3-triazol-1-yl)-3-(piperidin-1-yl)phenyl)-2-hydroxyethane-1-sulfonamide] | 27 nM
2 | Cc1cc(-c2cn(-c3ccc(NS(=O)(=O)CCO)cc3N3CCC4(CC4)C3)nn2)nc(N2CCC(F)(F)CC2)n1 [Compound 88, N-(4-(4-(2-(4,4-difluoropiperidin-1-yl)-6-methylpyrimidin-4-yl)-1H-1,2,3-triazol-1-yl)-3-(5-azaspiro[2.4]heptan-5-yl)phenyl)-2-hydroxyethane-1-sulfonamide] | 120 nM
3 | O=C(c1ccc(-c2cn(-c3ccc(NS(=O)(=O)CCO)cc3N3CCC4(CC3)CC4)nn2)o1)C1CCCC1 [Compound 92, N-(4-(4-(5-(cyclopentanecarbonyl)furan-2-yl)-1H-1,2,3-triazol-1-yl)-3-(6-azaspiro[2.5]octan-6-yl)phenyl)-2-hydroxyethane-1-sulfonamide] | 9.6 nM
4 | O=S(=O)(CCO)Nc1ccc(-n2cc(-c3nc(N4CCC(F)(F)CC4)sc3F)nn2)c(N2CCC3(CC2)CC3)c1 [Compound 93, N-(4-(4-(2-(4,4-difluoropiperidin-1-yl)-5-fluorothiazol-4-yl)-1H-1,2,3-triazol-1-yl)-3-(6-azaspiro[2.5]octan-6-yl)phenyl)-2-hydroxyethane-1-sulfonamide] | 10 nM
5 | Cc1cc(-c2cn(-c3ccc(NS(=O)(=O)CCO)cc3N3CCC4(CC3)CC4)nn2)nc(N2CCCC2)n1 [Compound 98, 2-hydroxy-N-(4-(4-(6-methyl-2-(pyrrolidin-1-yl)pyrimidin-4-yl)-1H-1,2,3-triazol-1-yl)-3-(6-azaspiro[2.5]octan-6-yl)phenyl)ethane-1-sulfonamide] | 12 nM
6 | Cc1cc(-c2cn(-c3ccc(NS(=O)(=O)CCO)cc3N3CCC4(CC3)CC4)nn2)nc(N2CC3CC3C2)n1 (centres unmarked) [Compound 99, N-(4-(4-(2-(3-azabicyclo[3.1.0]hexan-3-yl)-6-methylpyrimidin-4-yl)-1H-1,2,3-triazol-1-yl)-3-(6-azaspiro[2.5]octan-6-yl)phenyl)-2-hydroxyethane-1-sulfonamide] | 8.1 nM
7 | Cc1cc(-c2cn(-c3ccc(NS(=O)(=O)CCO)cc3N3CCC4(CC3)CC4)nn2)nc(N2CCC(F)C2)n1 (centres unmarked) [Compound 102, N-(4-(4-(2-(3-fluoropyrrolidin-1-yl)-6-methylpyrimidin-4-yl)-1H-1,2,3-triazol-1-yl)-3-(6-azaspiro[2.5]octan-6-yl)phenyl)-2-hydroxyethane-1-sulfonamide] | 16 nM
8 | Cc1cc(-c2cn(-c3ccc(NS(=O)(=O)CCO)cc3N3CCC4(CC3)CC4)nn2)nc(N2CCC(C(F)F)C2)n1 (centres unmarked) [Compound 103, N-(4-(4-(2-(3-(difluoromethyl)pyrrolidin-1-yl)-6-methylpyrimidin-4-yl)-1H-1,2,3-triazol-1-yl)-3-(6-azaspiro[2.5]octan-6-yl)phenyl)-2-hydroxyethane-1-sulfonamide] | 20 nM
9 | Cc1cc(-c2cn(-c3ccc(NS(=O)(=O)CCO)cc3N3CCC(C(F)F)CC3)nn2)nc(N2CCC(F)(F)CC2)c1 [Compound 104, N-(3-(4-(difluoromethyl)piperidin-1-yl)-4-(4-(6-(4,4-difluoropiperidin-1-yl)-4-methylpyridin-2-yl)-1H-1,2,3-triazol-1-yl)phenyl)-2-hydroxyethane-1-sulfonamide] | 15 nM
10 | Cc1cc(N2CCC(F)(F)CC2)nc(-n2cc(-c3ccc(NS(=O)(=O)C4CC4)cc3N3CCC4(CC3)CC4)nn2)c1 [Compound 105, N-(4-(1-(6-(4,4-difluoropiperidin-1-yl)-4-methylpyridin-2-yl)-1H-1,2,3-triazol-4-yl)-3-(6-azaspiro[2.5]octan-6-yl)phenyl)cyclopropanesulfonamide] | 75 nM
11 | CCS(=O)(=O)Nc1ccc(-c2cn(-c3cc(C)cc(N4CCC(F)(F)CC4)n3)nn2)c(N2CCC3(CC2)CC3)c1 [Compound 108, N-(4-(1-(6-(4,4-difluoropiperidin-1-yl)-4-methylpyridin-2-yl)-1H-1,2,3-triazol-4-yl)-3-(6-azaspiro[2.5]octan-6-yl)phenyl)ethanesulfonamide] | 63 nM
12 | O=S(=O)(CCO)Nc1ccc(-c2cn(-c3ccc(F)c(S(=O)(=O)N4CC(F)(F)C4)c3)nn2)c(N2CCC3(CC2)CC3)n1 [Compound 111, N-(5-(1-(3-((3,3-difluoroazetidin-1-yl)sulfonyl)-4-fluorophenyl)-1H-1,2,3-triazol-4-yl)-6-(6-azaspiro[2.5]octan-6-yl)pyridin-2-yl)-2-hydroxyethane-1-sulfonamide] | 68 nM
13 | O=S(=O)(CCO)Nc1ccc(-c2cn(-c3cccc(OC4CCCC4)n3)nn2)c(N2CCC3(CC2)CC3)c1 [Compound 113, N-(4-(1-(6-(cyclopentyloxy)pyridin-2-yl)-1H-1,2,3-triazol-4-yl)-3-(6-azaspiro[2.5]octan-6-yl)phenyl)-2-hydroxyethane-1-sulfonamide] | 23 nM
14 | Cc1cc(-n2cc(-c3ccc(NS(=O)(=O)CCO)cc3N3CCC4(CC3)CC4)nn2)cc(N2CCC(F)(F)CC2)n1 [Compound 114] | 58 nM
15 | Cc1cc(-c2cn(-c3ccc(NS(=O)(=O)CCO)cc3N3CCC4(CC3)CC4)nn2)nc(N2C[C@@H](F)[C@H](F)C2)c1 [Compound 115, N-(4-(4-(6-((3R,4R)-3,4-difluoropyrrolidin-1-yl)-4-methylpyridin-2-yl)-1H-1,2,3-triazol-1-yl)-3-(6-azaspiro[2.5]octan-6-yl)phenyl)-2-hydroxyethane-1-sulfonamide] | 44 nM
16 | CCS(=O)(=O)Nc1ccc(-n2cc(-c3cccc(S(=O)(=O)NC(C)(C)C)c3)nn2)c(N2CCC(C(F)F)CC2)c1 [Compound 118, N-(tert-butyl)-3-(1-(2-(4-(difluoromethyl)piperidin-1-yl)-4-(ethylsulfonamido)phenyl)-1H-1,2,3-triazol-4-yl)benzenesulfonamide] | 15 nM
17 | Cn1cc(-c2cn(-c3ccc(NS(=O)(=O)CCO)cc3N3CCC4(CC3)CC4)nn2)nc1N1CCC(F)(F)CC1 [Compound 119, N-(4-(4-(2-(4,4-difluoropiperidin-1-yl)-1-methyl-1H-imidazol-4-yl)-1H-1,2,3-triazol-1-yl)-3-(6-azaspiro[2.5]octan-6-yl)phenyl)-2-hydroxyethane-1-sulfonamide] | 42 nM
18 | CCS(=O)(=O)Nc1ccc(-n2cc(-c3ccc(F)c(S(=O)(=O)NC(C)(C)C)c3)nn2)c(N2CCC3(CC2)CC3)c1 [Compound 120, N-(tert-butyl)-5-(1-(4-(ethylsulfonamido)-2-(6-azaspiro[2.5]octan-6-yl)phenyl)-1H-1,2,3-triazol-4-yl)-2-fluorobenzenesulfonamide] | 19 nM
19 | CC(C)(C)NS(=O)(=O)c1cccc(-c2cn(-c3ccc(NS(=O)(=O)CCO)cc3N3CCC4(CC3)CC4)nn2)c1 [Compound 121, N-(tert-butyl)-3-(1-(4-((2-hydroxyethyl)sulfonamido)-2-(6-azaspiro[2.5]octan-6-yl)phenyl)-1H-1,2,3-triazol-4-yl)benzenesulfonamide] | 14 nM
20 | CC(C)(C)NS(=O)(=O)c1cccc(-c2cn(-c3ccc(NS(=O)(=O)C4(CO)CC4)cc3N3CCC4(CC3)CC4)nn2)c1 [Compound 122, N-(tert-butyl)-3-(1-(4-((1-(hydroxymethyl)cyclopropane)-1-sulfonamido)-2-(6-azaspiro[2.5]octan-6-yl)phenyl)-1H-1,2,3-triazol-4-yl)benzenesulfonamide] | 18 nM
